According to US11753363B2, “13-oxidized ingenol derivative and use thereof” (Tianjin Pharmaceutical Da Ren Tang Group Corp., Ltd. …, priority 2017, dated 2023):
In brackets after ≈: the same amount, converted by molar mass.

Legend:
Type in all cases: cell-based
[1] = tested on: A549 (human lung cancer cells); assay: Inhibition of proliferation of tumor cell lines (MTT), A549; conditions: Homo sapiens, A549, 72 h, read-out: IC50 value of compound for inhibition of proliferation of tumor cell lines, A549
Method: (§1) In this example, the inhibitory activity of compounds of the present invention against proliferation of seven human tumor cell lines and mouse B16-F10 melanoma cells was tested in vitro, and the IC50 value (50% inhibitory concentration) of compounds against each tumor cell line was calculated.
(§2) The seven human tumor cell lines are: MCF-7 (human breast cancer cells), LOVO (human colon cancer cells), A549 (human lung cancer cells), BGC-823 (human gastric cancer cells), SMMC-7721 (human liver cancer cells), K562 (human leukemia cells), and HeLa (human cervical cancer cells).
(§3) IC50 values of the compounds for A549, BGC-823, LOVO, MCF-7, SMMC-7721, HeLa, and B16-F10 cells were tested. The above cells were routinely cultured in 1640 nutrient solution containing 10% calf serum, with passage for 1 time every 2 days, and the cells in logarithmic growth phase were taken for experiments. After the A549, BGC-823, LOVO, MCF-7, SMMC-7721, HeLa and B16-F10 cells in logarithmic growth phase were subjected to 0.25% trypsin digestion, they were blown into a single cell suspension, and then the cell concentration was adjusted to about 1×10^5·mL^−1 using RPMI 1640 solution containing 10% calf serum. The cells were seeded in a 96-well culture plate at 100 μL per well, and cultured for 24 hours until the cells were attached. K562 cells were taken and centrifuged and diluted into 2×10^5·mL^−1 single cell suspension with RPMI 1640 solution containing 10% calf serum, and inoculated into a 96-well culture plate at 100 μL per well.
(§4) 100 μL of sample solution with different concentrations to be tested were added to the above 96-well plate, each concentration was added to 4 wells in parallel, and the cell control group was added with an equal volume of RPMI 1640 medium containing 10% calf serum to make a reaction volume of 200 μL. After incubating in an incubator at 37° C., 5% CO2 for 72 h, 10 μL of 5 mg·mL^−1 MTT solution was added to each well, and incubated at 37° C. for 4 h. The supernatant was carefully aspirated, 180 μL of DMSO was added to each well followed by shaking, and the absorbance (OD) value was measured at 570 nm on the microplate reader. The inhibition rate was calculated, and regression equation was established with the logarithmic value of the sample concentration and the inhibition rate (IR) to find the IC50 value of the compound against the cells to be tested. IR (%)=(1−OD value of the experimental group/OD value of the cell control group)×100%

[2] = tested on: K562 (human leukemia cells); assay: Inhibition of proliferation of tumor cell lines (MTT), K562; conditions: Homo sapiens, K562, 72 h, read-out: IC50 value of compound for inhibition of proliferation of tumor cell lines, K562
Method: as §1, §2, §3, §4

[3] = tested on: BGC-823 (human gastric cancer cells); assay: Inhibition of proliferation of tumor cell lines (MTT), BGC-823; conditions: Homo sapiens, BGC-823, 72 h, read-out: IC50 value of compound for inhibition of proliferation of tumor cell lines, BGC-823
Method: as §1, §2, §3, §4

[4] = tested on: release of IL-8 by human keratinocytes (HaCaT); assay: Release of IL-8 by human keratinocytes (HaCaT), IL-8 Elisa; conditions: Homo sapiens, HaCaT, 24 h, (Csample−Ccontrol)/Ccontrol×100%, read-out: Efficiency of compound in stimulating the release of IL-8 by HaCaT cells; for activation at 1 µg/mL: 1 μg/mL
Method: This Example investigated the effect of compound on release of IL-8 by human keratinocytes (HaCaT) and calculated the efficiency of each compound in stimulating the release of IL-8 by human keratinocytes (HaCaT).
Hacat cells were cultured in MEM+10% FBS under the conditions of 37° C., 5% CO2, and when the cells reached 80-95% fusion, they were inoculated into a 96-well culture plate (1×10^4 cells/well) at 100 μL/well, and incubated for 18-24 h. The supernatant was discarded and the cells were incubated for 3-6 h in 1% FBS medium. Different concentrations of the sample solution of compound to be tested were added to each well, and the cell control group was added with an equal volume of 1% FBS medium at 10 μL/well, and incubated for 24 h. The supernatant was taken and tested according to the operation sequence of the IL-8 Elisa kit. Calculation formula of Efficiency: Efficiency (%)=(Csample−Ccontrol)/Ccontrol×100%

[5] = tested on: MCF-7 (human breast cancer cells); assay: Inhibition of proliferation of tumor cell lines (MTT), MCF-7; conditions: Homo sapiens, MCF7, MCF-7, 72 h, read-out: IC50 value of compound for inhibition of proliferation of tumor cell lines, MCF-7
Method: as §1, §2, §3, §4

[6] = tested on: LOVO (human colon cancer cells); assay: Inhibition of proliferation of tumor cell lines (MTT), LOVO; conditions: Homo sapiens, 72 h, read-out: IC50 value of compound for inhibition of proliferation of tumor cell lines, LOVO
Method: as §1, §2, §3, §4

[7] = tested on: neutrophilic granulocytes; assay: Neutrophil oxidative burst (luminol chemiluminescence); conditions: Neutrophil, rat neutrophils, (Csample−Ccontrol)/Ccontrol×100%, read-out: Efficiency of compounds in stimulating neutrophil oxidative burst; for activation at 3 µg/mL: 3 μg/mL
Method: This example investigated the effect of compound on neutrophil oxidative burst and calculated the efficiency of each compound in stimulating neutrophil oxidative burst.
Blood was taken from the abdominal aorta of rat. The neutrophilic granulocytes were isolated by the operational procedure of the rat peripheral blood neutrophil isolation kit. The neutrophilic granulocytes were re-suspended by Hanks, and were plated in a 96-well white plate at 1×10^5 cells/well, 80 μL/well; 1 mM of Luminol was added at 10 μL/well; 10 μL of the sample was added to each well, and the degree of oxidative burst was evaluated by chemiluminescence. Calculation formula of Efficiency: Efficiency (%)=(Csample−Ccontrol)/Ccontrol×100%

[8] = tested on: SMMC-7721 (human liver cancer cells); assay: Inhibition of proliferation of tumor cell lines (MTT), SMMC-7721; conditions: Homo sapiens, SMMC-7721, 72 h, read-out: IC50 value of compound for inhibition of proliferation of tumor cell lines, SMMC-7721
Method: as §1, §2, §3, §4

[9] = tested on: mouse B16-F10 melanoma cells; assay: Inhibition of proliferation of tumor cell lines (MTT), B16-F10; conditions: Mus musculus, B16-F10, 72 h, read-out: IC50 value of compound for inhibition of proliferation of tumor cell lines, B16-F10
Method: as §1, §3, §4

[10] = tested on: HeLa (human cervical cancer cells); assay: Inhibition of proliferation of tumor cell lines (MTT), HeLa; conditions: Homo sapiens, 72 h, read-out: IC50 value of compound for inhibition of proliferation of tumor cell lines, HeLA
Method: as §1, §2, §3, §4

Compound	IC50 [1] [µg/mL]	IC50 [2] [µg/mL]	IC50 [3] [µg/mL]	activation at 0.1 µg/mL ([4]; 0.1 μg/mL) [%]	IC50 [5] [µg/mL]	IC50 [6] [µg/mL]	activation at 0.1 µg/mL ([7]; 0.1 μg/mL) [%]	IC50 [8] [µg/mL]	IC50 [9] [µg/mL]	activation at 3 µg/mL [7] [%]	IC50 [10] [µg/mL]	activation at 1 µg/mL [4] [%]
CCCCCCCCCCCC(=O)O[C@@]12C[C@@H](C)[C@]34C=C(C)[C@H](OC(=O)CCCCC)[C@@]3(O)[C@H](O)C(CO)=C[C@H](C4=O)[C@@H]1C2(C)C [3-O-hexanoyl-13-O-dodecanoyl-ingenol]	18.5 (≈ 28.7 µM)	< 0.2	18.3 (≈ 28.4 µM)	66	14 (≈ 21.7 µM)	16.5 (≈ 25.6 µM)	173	16.1 (≈ 25 µM)				
CCCCCCCCCCCC(=O)O[C@@]12C[C@@H](C)[C@]34C=C(C)[C@H](O)[C@@]3(O)[C@H](O)C(COC(=O)C(C)C(C)C)=C[C@H](C4=O)[C@@H]1C2(C)C (stereo partly drawn) [20-O-(2,3-dimethylbutyryl)-13-O-dodecanoyl-ingenol]	8.89 (≈ 13.8 µM)	0.64 (≈ 0.992 µM)	11 (≈ 17.1 µM)		10.1 (≈ 15.7 µM)	8.36 (≈ 13 µM)		10.7 (≈ 16.6 µM)	16.6 (≈ 25.7 µM)	64.5	14.5 (≈ 22.5 µM)	
CCCCCCCCCC(=O)O[C@@]12C[C@@H](C)[C@]34C=C(C)[C@H](O)[C@@]3(O)[C@H](O)C(CO)=C[C@H](C4=O)[C@@H]1C2(C)C [Compound 1a, 13-O-decanoyl-ingenol]	15.1 (≈ 29.1 µM)	0.7 (≈ 1.35 µM)	15 (≈ 28.9 µM)		13.8 (≈ 26.6 µM)	9.77 (≈ 18.8 µM)		19.5 (≈ 37.6 µM)		65.2	29.1 (≈ 56.1 µM)	
CCCCC/C=C/C=C/C(=O)O[C@@]12C[C@@H](C)[C@]34C=C(C)[C@H](O)[C@@]3(O)[C@H](O)C(CO)=C[C@H](C4=O)[C@@H]1C2(C)C [Compound 1b, 13-O-(2′E,4′E-decadienoyl)-ingenol]	12.8 (≈ 24.9 µM)	8.97 (≈ 17.4 µM)	10.6 (≈ 20.6 µM)		11.8 (≈ 22.9 µM)	12.9 (≈ 25.1 µM)		8.01 (≈ 15.6 µM)				
CCCCCCCCCCCC(=O)O[C@@]12C[C@@H](C)[C@]34C=C(C)[C@H](O)[C@@]3(O)[C@H](O)C(CO)=C[C@H](C4=O)[C@@H]1C2(C)C [Compound 1c, 13-O-dodecanoyl-ingenol]	11.1 (≈ 20.3 µM)	5.51 (≈ 10.1 µM)	6.19 (≈ 11.3 µM)		6.36 (≈ 11.6 µM)	8.97 (≈ 16.4 µM)		6.49 (≈ 11.9 µM)			15.1 (≈ 27.6 µM)	
CCCCCCCCCCCC(=O)O[C@@]12C[C@@H](C)[C@]34C=C(C)[C@H](O)[C@@]3(O)[C@H](O)C(C)=C[C@H](C4=O)[C@@H]1C2(C)C [Compound 1d, 20-deoxy-13-O-dodecanoyl-ingenol]	26.8 (≈ 50.5 µM)	6.88 (≈ 13 µM)	15.4 (≈ 29 µM)		29.2 (≈ 55 µM)	19.2 (≈ 36.2 µM)		31.5 (≈ 59.4 µM)				
CC1=C[C@]23C(=O)[C@@H](C4OC4(C)[C@@H](O)[C@]2(O)[C@H]1O)[C@H]1C(C[C@H]3C)C1(C)C (stereo partly drawn) [Compound 1e, 6,7-epoxy-20-deoxy-ingenol]	> 200	5.52 (≈ 15.8 µM)	> 200		> 200	> 200		> 200				
CCCCCCCCCCCC(=O)O[C@@]12C[C@@H](C)[C@]34C=C(C)[C@H](O)[C@@]3(O)[C@H](O)C3(COC(=O)C(C)C(C)C)OC3[C@H](C4=O)[C@@H]1C2(C)C (stereo partly drawn) [Compound 1f, 6,7-epoxy-20-O-(2,3-dimethylbutyryl)-13-O-dodecanoyl-ingenol]											16.8 (≈ 25.4 µM)	
CCCCCCCCCCCC(=O)O[C@@]12C[C@@H](C)[C@]34C=C(C)[C@H](O)[C@@]3(O)[C@@H]3OC(C)(C)OCC3=C[C@H](C4=O)[C@@H]1C2(C)C [Compound 2b, 13-O-dodecanoyl-ingenol 5,20-acetonide]	15 (≈ 25.6 µM)	0.85 (≈ 1.45 µM)	17.8 (≈ 30.3 µM)		13.7 (≈ 23.3 µM)	23 (≈ 39.2 µM)		15.2 (≈ 25.9 µM)				
CCCCCCCCCCCC(=O)O[C@@]12C[C@@H](C)[C@]34C=C(C)[C@@H]5OC(C)(C)O[C@@]53[C@H](O)C(CO)=C[C@H](C4=O)[C@@H]1C2(C)C [Compound 2c, 13-O-dodecanoyl-ingenol 3,4-acetonide]	9.59 (≈ 16.3 µM)	0.42 (≈ 0.716 µM)	5.3 (≈ 9.03 µM)		8.89 (≈ 15.1 µM)	10.3 (≈ 17.6 µM)		8.21 (≈ 14 µM)		64.6		
C/C=C(/C)C(=O)O[C@H]1C(C)=C[C@]23C(=O)[C@@H](C=C(CO)[C@@H](O)[C@]12O)[C@@H]1C(C)(C)[C@]1(O)C[C@H]3C [Compound 3, 3-O-angeloyl-13-hydroxy-ingenol]										65		23.8
CCCCCC(=O)O[C@@]12C[C@@H](C)[C@]34C=C(C)[C@H](O)[C@@]3(O)[C@H](O)C(CO)=C[C@H](C4=O)[C@@H]1C2(C)C [Compound 6, 13-O-n-hexanoyl-ingenol]										52.2		
CCCCCCCC(=O)O[C@@]12C[C@@H](C)[C@]34C=C(C)[C@H](O)[C@@]3(O)[C@H](O)C(CO)=C[C@H](C4=O)[C@@H]1C2(C)C [Compound 7, 13-O-n-octanoyl-ingenol]	29.7 (≈ 60.5 µM)	1.72 (≈ 3.51 µM)	25.1 (≈ 51.2 µM)		16.2 (≈ 33 µM)	24.1 (≈ 49.1 µM)		16 (≈ 32.6 µM)	38.4 (≈ 78.3 µM)	45	29.3 (≈ 59.7 µM)	
CCCCCCCCCC(=O)O[C@@]12C[C@@H](C)[C@]34C=C(C)[C@H](O)[C@@]3(O)[C@H](O)C(COC(=O)C(C)C(C)C)=C[C@H](C4=O)[C@@H]1C2(C)C (stereo partly drawn) [Compound 14, 20-O-(2,3-dimethylbutyryl)-13-O-decanoyl-ingenol]										62.8		22.6
C/C=C(/C)C(=O)OCC1=C[C@@H]2C(=O)[C@]3(C=C(C)[C@H](OC(=O)/C(C)=C\C)[C@@]3(O)[C@@H]1O)[C@H](C)C[C@]1(OC(=O)CCCCCCCCCCC)[C@H]2C1(C)C [Compound 15a, 3,20-O-diangeloyl-13-O-dodecanoyl-ingenol]	> 100	3.22 (≈ 4.53 µM)	> 100		> 100	> 100		26.9 (≈ 37.8 µM)				
